Experimental data as given in PubChem BioAssay (NCI).
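Five compound concentrations were applied to cells in 96-well plates for 48 hours; endpoints were derived by simple linear interpolation of the resulting dose-response curve. The concentration for 50% growth inhibition is given as GI50. The concentration for full growth arrest is given as TGI.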

What was measured:
Experiment in all cases: NCI-60 cell line screen, 48 h
[1] = system: 786-0 renal
[2] = system: HCT-116 colon
[3] = system: HOP-62 NSCLC
[4] = system: K-562 leukemia
[5] = system: NCI-H226 lung
[6] = system: NCI-H23 lung
[7] = system: OVCAR-8 ovarian
[8] = system: SK-OV-3 ovarian
[9] = system: SNB-19 CNS
[10] = system: TK-10 renal

Row | SMILES | GI50 [1] | TGI [1] | GI50 [2] | TGI [2] | GI50 [3] | TGI [3] | GI50 [4] | TGI [4] | GI50 [5] | TGI [5] | GI50 [6] | TGI [6] | GI50 [7] | TGI [7] | GI50 [8] | TGI [8] | GI50 [9] | TGI [9] | GI50 [10] | TGI [10]
1 | C=Cc1cc(OC)c2c(c1)c(=O)oc1c2cc(OC)c2c(O)ccc(C3OC(C(C)O)C(O)C3O)c21 (stereo not given) | 0.00336 µM | 0.0192 µM | 0.00298 µM | 0.205 µM | 0.00996 µM | 0.0595 µM | 0.00355 µM | 0.126 µM | 0.023 µM | 0.099 µM | 0.000928 µM | 0.0151 µM | 0.0114 µM | 0.212 µM | 0.0165 µM | 0.718 µM | 0.028 µM | 0.246 µM | 0.0223 µM | 0.318 µM
2 | CS(=O)(=O)CCNCc1ccoc1-c1ccc2ncnc(Nc3ccc(OCc4ccccc4)cc3)c2c1 | > 25 µM | > 25 µM | > 25 µM | > 25 µM | > 25 µM | > 25 µM | 14.4 µM | > 25 µM | > 25 µM | > 25 µM | > 25 µM | > 25 µM | > 25 µM | > 25 µM | 1.5 µM | > 25 µM | > 25 µM | > 25 µM | 1.38 µM | > 25 µM
3 | Cc1c2ccccc2c(C)n2c1nc1cc(Cl)c(Cl)cc12 | > 100 µM | > 100 µM | 18.6 µM | > 100 µM | > 100 µM | > 100 µM | 14.3 µM | 72.1 µM | > 100 µM | > 100 µM | > 100 µM | > 100 µM | > 100 µM | > 100 µM | > 100 µM | > 100 µM | > 100 µM | > 100 µM | > 100 µM | > 100 µM
4 | O=C1CC2OCC=C3CN4CCC5(C(=O)O)C(N1)C2C3CC45 (stereo not given) |  | > 100 µM |  | > 100 µM |  | > 100 µM |  | > 100 µM |  | > 100 µM |  | > 100 µM |  | > 100 µM |  | > 100 µM |  | > 100 µM |  | > 100 µM
5 | O=C(CCc1cc(-c2ccc(F)cc2)n[nH]1)N(Cc1ccccc1)Cc1ccccc1 |  | > 100 µM |  | > 100 µM |  | > 100 µM |  | > 100 µM |  | > 100 µM |  | > 100 µM |  | > 100 µM |  | > 100 µM |  | > 100 µM |  | > 100 µM
